Source: ChEMBL document CHEMBL5506040, “Design of FK866-Based Degraders for Blocking the Nonenzymatic Functions of Nicotinamide Phosphoribosyltransferase” (J Med Chem, 2024)
Values belong to the molecule of their own block, whether it stands above or below them. Activity calls are given as the source filed them. No cut-off for these calls is given here.

Experiments:
[1] = Induction of NAMPT degradation in immunocompetent female BALB/c mouse implanted with mouse CT26 cells assessed as reduction in intracellular NAMPT level in tumor by measuring fold change at 20 mg/kg, ip administered for 30 days by Western blot analysis (reference value: 1.00); assay type: functional; conditions: time 30 day
SK-OV-3 = experiment: cells; conditions: Homo sapiens, SK-OV-3, 72 h
Description: Cytotoxicity against human SK-OV-3 cells assessed as inhibition of cell growth incubated for 72 hrs by MTT assay

[2] = Toxicity in immunocompetent BALB/c mouse implanted with mouse CT26 cells assessed as change in spleen size at 20 mg/kg, ip administered for 30 days relative to control group; assay type: organism-based; conditions: in vivo, 720 h, time 30 day
[3] = Toxicity in immunocompetent female BALB/c mouse implanted with mouse CT26 cells assessed as body weight loss at 20 mg/kg, ip administered for 30 days; assay type: organism-based; conditions: in vivo, 720 h, time 30 day
[4] = Toxicity in immunocompetent BALB/c mouse implanted with mouse CT26 cells assessed as punctate necrosis in liver at 20 mg/kg, ip administered for 30 days by H and E staining based analysis; assay type: organism-based; conditions: in vivo, 720 h, time 30 day
CT26 [5] = experiment: cells; conditions: Mus musculus, CT26, 72 h
Description: Cytotoxicity against mouse CT26 cells assessed as inhibition of cell growth incubated for 72 hrs by MTT assay

[6] = molecular target: Nicotinamide phosphoribosyltransferase (Mus musculus) (UniProt Q99KQ4); experiment: Induction of NAMPT degradation in mouse CT26 cells at 0.1 to 5 uM incubated for 24 hrs by Western blot analysis; assay type: cell-based; conditions: dose 0.1-5 µM
Sequence of Nicotinamide phosphoribosyltransferase (Mus musculus) (Q99KQ4 whole entry, looked up): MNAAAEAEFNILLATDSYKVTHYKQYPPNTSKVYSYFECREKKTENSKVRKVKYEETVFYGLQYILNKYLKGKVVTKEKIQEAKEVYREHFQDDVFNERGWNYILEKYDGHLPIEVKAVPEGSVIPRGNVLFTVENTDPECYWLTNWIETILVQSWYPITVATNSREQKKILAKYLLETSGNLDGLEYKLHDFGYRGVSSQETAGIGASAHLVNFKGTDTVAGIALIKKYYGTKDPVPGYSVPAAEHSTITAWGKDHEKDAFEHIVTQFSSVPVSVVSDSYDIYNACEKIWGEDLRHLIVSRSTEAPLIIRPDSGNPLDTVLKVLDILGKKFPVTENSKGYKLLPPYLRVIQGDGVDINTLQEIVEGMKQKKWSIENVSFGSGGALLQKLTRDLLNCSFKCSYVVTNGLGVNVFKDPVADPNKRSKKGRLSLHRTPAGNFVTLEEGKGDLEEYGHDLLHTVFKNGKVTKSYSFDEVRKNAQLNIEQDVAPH

[7] = molecular target: T1, von Hippel-Lindau disease tumor suppressor/Nicotinamide phosphoribosyltransferase (Homo sapiens, UniProt P43490+P40337); experiment: PROTAC activity at VHL/NAMPT in human SK-OV-3 cells assessed as induction of intracellular NAMPT degradation incubated for 24 hrs by Western blot analysis relative to control; assay type: cell-based
T1 sequence (P43490 whole entry): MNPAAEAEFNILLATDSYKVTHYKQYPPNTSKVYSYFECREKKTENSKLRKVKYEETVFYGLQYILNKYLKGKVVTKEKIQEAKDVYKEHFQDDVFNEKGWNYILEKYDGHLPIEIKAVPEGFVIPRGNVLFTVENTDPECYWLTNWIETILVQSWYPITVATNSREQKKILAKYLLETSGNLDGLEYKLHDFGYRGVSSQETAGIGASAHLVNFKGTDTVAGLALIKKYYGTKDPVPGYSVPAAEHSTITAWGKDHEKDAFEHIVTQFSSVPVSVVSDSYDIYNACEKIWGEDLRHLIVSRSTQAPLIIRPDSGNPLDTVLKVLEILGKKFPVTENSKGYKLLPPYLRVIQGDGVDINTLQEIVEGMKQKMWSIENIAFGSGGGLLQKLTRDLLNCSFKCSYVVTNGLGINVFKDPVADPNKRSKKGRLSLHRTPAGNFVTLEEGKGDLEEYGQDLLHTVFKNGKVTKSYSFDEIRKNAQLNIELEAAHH
T1 sequence (P40337 whole entry): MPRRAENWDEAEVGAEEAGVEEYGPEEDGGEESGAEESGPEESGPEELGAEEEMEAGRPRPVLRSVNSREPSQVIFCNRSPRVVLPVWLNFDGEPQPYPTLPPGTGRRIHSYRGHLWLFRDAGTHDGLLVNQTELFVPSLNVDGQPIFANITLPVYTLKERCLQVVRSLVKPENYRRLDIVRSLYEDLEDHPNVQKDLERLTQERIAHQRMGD

[8] = molecular target: T1, von Hippel-Lindau disease tumor suppressor/Nicotinamide phosphoribosyltransferase; experiment: PROTAC activity at VHL/NAMPT in human MKN-45 cells assessed as induction of intracellular NAMPT degradation incubated for 24 hrs by Western blot analysis relative to control; assay type: cell-based
[9] = molecular target: von Hippel-Lindau disease tumor suppressor/Nicotinamide phosphoribosyltransferase (Mus musculus, UniProt Q99KQ4+P40338); experiment: (§1) PROTAC activity at VHL/NAMPT in mouse CT26 cells assessed as induction of intracellular NAMPT degradation incubated for 24 hrs by Western blot analysis; assay type: cell-based
Sequence of von Hippel-Lindau disease tumor suppressor/Nicotinamide phosphoribosyltransferase (Mus musculus, UniProt Q99KQ4+P40338) (Q99KQ4 whole entry): as the sequence (Q99KQ4 whole entry, looked up) above
Sequence of von Hippel-Lindau disease tumor suppressor/Nicotinamide phosphoribosyltransferase (Mus musculus, UniProt Q99KQ4+P40338) (P40338 whole entry): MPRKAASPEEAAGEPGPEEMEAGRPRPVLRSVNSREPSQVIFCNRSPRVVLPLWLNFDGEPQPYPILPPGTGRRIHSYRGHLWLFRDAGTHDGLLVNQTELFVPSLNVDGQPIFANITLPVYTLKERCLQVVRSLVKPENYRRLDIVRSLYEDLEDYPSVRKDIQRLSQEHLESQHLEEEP

[10] = molecular target: T2, von Hippel-Lindau disease tumor suppressor/Nicotinamide phosphoribosyltransferase (Mus musculus) (UniProt Q99KQ4+P40338); experiment: as §1; assay type: cell-based
T2 sequence (P40338 whole entry, looked up): as the sequence (P40338 whole entry) above
T2 sequence (Q99KQ4 whole entry, looked up): as the sequence (Q99KQ4 whole entry, looked up) above

[11] = molecular target: T2, von Hippel-Lindau disease tumor suppressor/Nicotinamide phosphoribosyltransferase (Mus musculus); experiment: PROTAC activity at VHL/NAMPT in mouse CT26 cells assessed as induction of extracellular NAMPT degradation at 0.1 to 5 uM incubated for 24 hrs by Western blot analysis; assay type: cell-based; conditions: dose 0.1-5 µM
[12] = molecular target: Nicotinamide phosphoribosyltransferase (Homo sapiens) (UniProt P43490); conditions: SK-OV-3, dose 100.0 nM, time 24.0 hrs
Sequence of Nicotinamide phosphoribosyltransferase (Homo sapiens) (P43490 whole entry, looked up): as the sequence (P43490 whole entry) above

MIA PaCa-2 = experiment: cells; conditions: Homo sapiens, MIA PaCa-2, 72 h
Description: Cytotoxicity against human MIA PaCa-2 cells assessed as inhibition of cell growth incubated for 72 hrs by MTT assay

[13] = Half-life in male Sprague-Dawley rat at 14 mg/kg, ip measured after 24 hrs by LC/MS-MS analysis; assay type: ADME, organism-based; conditions: in vivo
[14] = Tmax in male Sprague-Dawley rat at 14 mg/kg, ip measured after 24 hrs by LC/MS-MS analysis; assay type: ADME, organism-based; conditions: in vivo
CT26 [15] = experiment: Antitumor activity against mouse CT26 cells implanted in immunocompetent female BALB/c mouse model assessed as reduction in tumor size at 20 mg/kg, ip administered for 30 days; assay type: functional, organism-based; conditions: time 30.0 day
[16] = Toxicity in immunocompetent BALB/c mouse implanted with mouse CT26 cells assessed as decrease in spleen index at 20 mg/kg, ip administered for 30 days relative to FK866; assay type: organism-based; conditions: in vivo, 720 h, time 30 day
[17] = molecular target: T2, von Hippel-Lindau disease tumor suppressor/Nicotinamide phosphoribosyltransferase (Mus musculus); experiment: PROTAC activity at VHL/NAMPT in mouse CT26 cells assessed as induction of extracellular NAMPT degradation incubated for 24 hrs by immunoblot analysis; assay type: cell-based; conditions: dose 0.1-5 µM
[18] = AUC (0 to 24 hrs) in male Sprague-Dawley rat at 14 mg/kg, ip measured after 24 hrs by LC/MS-MS analysis; assay type: ADME, organism-based; conditions: in vivo
[19] = Toxicity in immunocompetent BALB/c mouse implanted with mouse CT26 cells assessed as effect on liver histopathology at 20 mg/kg, ip administered for 30 days by H and E staining based analysis; assay type: organism-based; conditions: in vivo, 720 h, time 30 day
[20] = Cmax in male Sprague-Dawley rat at 14 mg/kg, ip measured after 24 hrs by LC/MS-MS analysis; assay type: ADME, organism-based; conditions: in vivo
[21] = molecular target: T2, von Hippel-Lindau disease tumor suppressor/Nicotinamide phosphoribosyltransferase (Mus musculus); experiment: PROTAC activity at VHL/NAMPT in mouse CT26 cells assessed as induction of intracellular NAMPT degradation incubated for 24 hrs by immunoblot analysis; assay type: cell-based; conditions: dose 0.1-5 µM
[22] = Apparent volume of distribution during terminal phase in male Sprague-Dawley rat at 14 mg/kg, ip measured after 24 hrs by LC/MS-MS analysis; assay type: ADME, organism-based; conditions: in vivo, read-out: Vz/F
CT26 [23] = experiment: Antitumor activity against mouse CT26 cells implanted in immunocompetent female BALB/c mouse model assessed as reduction in IL-6 expression at 20 mg/kg, ip administered for 30 days by ELISA; assay type: functional, organism-based; conditions: time 30.0 day
CT26 [24] = experiment: Antitumor activity against mouse CT26 cells implanted in immunocompetent female BALB/c mouse model assessed as reduction in tumor growth at 20 mg/kg, ip administered for 30 days; assay type: functional, organism-based; conditions: time 30.0 day
CT26 [25] = experiment: Antitumor activity against mouse CT26 cells implanted in immunocompetent female BALB/c mouse model assessed as reduction in TNF-alpha expression at 20 mg/kg, ip administered for 30 days by ELISA; assay type: functional, organism-based; conditions: time 30.0 day

IC50 (SK-OV-3): 6 nM | IC50 (CT26 [5]): 39 nM
Structure (SMILES): O=C(/C=C/c1cccnc1)NCCCCC1CCN(C(=O)c2ccccc2)CC1 [DAPORINAD]
fold change (FC) [1]: 1.04 | Activity [2]: Toxic | Activity [3]: Non-Toxic | Activity [4]: Toxic

Activity [6]: inactive
Structure (SMILES): Cc1ncsc1-c1ccc([C@H](C)NC(=O)[C@H]2C[C@H](O)CN2C(=O)[C@@H](NC(=O)COCCOCCOCCNC(=O)c2ccc(C(=O)N3CCC(CCCCNC(=O)/C=C/c4cccnc4)CC3)cc2)C(C)(C)C)cc1

IC50 (SK-OV-3): 9930 nM | IC50 (CT26 [5]): > 100000 nM
Structure (SMILES): Cc1ncsc1-c1ccc([C@@H](C)NC(=O)[C@@H]2C[C@@H](O)CN2C(=O)[C@@H](NC(=O)COCCOCCOCCOCCNC(=O)c2ccc(CN3CCN(S(=O)(=O)c4ccc(NC(=S)NCc5cccnc5)cc4)CC3)cc2)C(C)(C)C)cc1

DC50 [7]: 25 nM | DC50 [8]: 6.4 nM | DC50 [9]: 920 nM | Activity [10]: Dose-Dependent Effect | IC50 (SK-OV-3): 890 nM | Activity [11]: Active | inhibition [12]: Active | IC50 (MIA PaCa-2): 4 nM | IC50 (CT26 [5]): 23100 nM
Structure (SMILES): Cc1ncsc1-c1ccc([C@H](C)NC(=O)[C@@H]2C[C@@H](O)CN2C(=O)[C@@H](NC(=O)COCCOCCOCCOCCNC(=O)c2ccc(C(=O)N3CCC(CCCCNC(=O)/C=C/c4cccnc4)CC3)cc2)C(C)(C)C)cc1

half-life [13]: 22 h | Tmax [14]: 1 h | DC50 [9]: 520 nM | Activity [10]: Dose-Dependent Effect | IC50 (SK-OV-3): 1020 nM | Activity [17]: Dose-Dependent Effect | IC50 (MIA PaCa-2): 4 nM | AUC(0-t) at 24 h [18]: 919 ng·h/mL | Cmax [20]: 147 ng/mL | IC50 (CT26 [5]): 25800 nM | Activity [21]: Dose-Dependent Effect | Vd/F [22]: 0.483 L/kg
Structure (SMILES): Cc1ncsc1-c1ccc([C@@H](C)NC(=O)[C@H]2C[C@H](O)CN2C(=O)[C@H](NC(=O)COCCOCCOCCNC(=O)c2ccc(C(=O)N3CCC(CCCCNC(=O)/C=C/c4cccnc4)CC3)cc2)C(C)(C)C)cc1
Activity (CT26 [15]): Active | Activity [16]: Toxic | Activity [2]: Non-Toxic | Activity [3]: Non-Toxic | Activity [19]: Non-Toxic | Activity (CT26 [23]): Active | Activity (CT26 [24]): Active | Activity (CT26 [25]): Active
